Experimental data: US20120015886A1, “METHOD FOR PREPARING RECOMBINANT PEPTIDE FROM SPIDER VENOM AND METHOD FOR RELIEVING PAIN” (priority 2005, published 2012)
Where no end group is shown, it is not given here.

What was measured:
carrageenan-treated mice [1] = experiment: von Frey test, mechanical allodynia heightened by carrageenan; format: in vivo
Source text: Mechanical stimuli were applied in an area in the paw between the thumb and index finger.

carrageenan-treated mice [2] = experiment: Weight-bearing test; format: in vivo
Procedure: In order to monitor behavioral changes brought by complex mechanical stimuli, the present inventors conducted the weight-bearing test, in which complex mechanical pain is assessed as the stimulus is varied. In detail, one the hind limbs of a mouse was injected with pain inducers such as carrageenan and formalin to incur pain. In such a case, the mouse puts less weight in the injected hind limb, but puts more weight than usual in the other, normal hind limb and this difference in weight is recorded as a measure of pain.
More specifically, the principles behind this test are as follows. When a mouse receives an injection of pain inducers in only one of the hind paws, it puts more weight than usual in the other hind paw. This difference in the weight balance serves as a measure of the mouse's pain. In the present example, such weight difference per unit body weight of the mouse was reported for comparison.
Two groups of 8 mice each received an intraplantar injection of either 2% carrageenan (50 μL) or for the negative control group, physiological saline solution (100 μL) at only one of their hind paws. To the carrageenan-treated mice, either GsMTx4 (40 μg/150 g body weight) or for the positive control group, morphine (10 mg/150 g) was intraperitoneally and their weight balances were monitored 1 to 6 hours later.

carrageenan-treated mice [3] = experiment: Randall-Selitto test, mechanical hyperalgesia heightened by carrageenan; format: in vivo
Procedure: In order to probe mechanical hyperalgesia in mice, the present inventors conducted the Randall-Selitto test, in which severe mechanical stress is applied to inflict pain. In detail, force is applied to a sharp-ended rod in touch with a hind paw of a mouse. As a measure of pain sensitivity, the weight of the rod at the pain threshold is recorded.
(§1) A cone-shaped rod was placed at one of the hind paws of mice treated with GsMTx4 and force was applied. […] A pain response was characterized as either raising the hind paw, rolling up the tail, or making a shrill sound.
(§2) Two groups of 8 mice each were injected with either physiological saline solution or the pain inducer carrageenan (2% solution, 50 μL, intraplantar) at their hind paws. After the first injection, either GsMTx4 (40 μg/150 g body weight) or for the positive control group, morphine (1.5 mg/150 g) was intraperitoneally injected to these mice. The Randall-Selitto test was carried out 4 hours later. Mechanical stimuli were applied in an area in the paw between the thumb and index finger. Threshold weight data were represented as percentage values against the threshold weight for mice treated saline solution (negative control).

[4] = system: stretch-activated channels (SACs); settings: administered to the hearts of rabbits after atrial fibrillation was induced with high level stress; cited from earlier work
[5] = system: mice that did not receive carrageenan; experiment: von Frey test, mechanical low-pressure stimuli, no pain inducer; format: in vivo; settings: mice without carrageenan; compared to intraplantar saline and intraperitoneal morphine groups
Procedure: The present inventors conducted the von Frey test in order to see whether GsMTx4 of this invention has an analgesic effect against rubbing or other weak mechanical stimuli inside a living body. When a pain inducer is administered only to one of the hind paws of a mouse, the affected paw becomes sensitive and feels pain from even small mechanical stimuli. The von Frey test involves measuring the weight difference at the pain threshold between the two hind paws as one varies the width of the von Frey hair involved in giving the stimuli (http://www.2biol.com/2biol analgesia.htm; Pitcher, G. M. et al., Journal of Neuroscience Methods 87(2):185˜193, 1999).
Two groups of 8 mice each received a 50-μL intraplantar injection of either physiological saline solution or 2% carrageenan at only one of their hind paws. After the first injection, either GsMTx4 (40 μg/150 g body weight) or for the positive control group, morphine (10 mg/150 g) was intraperitoneally injected to these mice. These mice were rubbed with von Frey hairs a half to 4 hours later.
Mechanical stimuli were applied in an area in the paw between the thumb and index finger. Threshold weight data were represented as percentages against the threshold weight for mice treated saline solution (negative control).

cell swelling = settings: Sachs et al., J. Gen. Physiol. 2000; cited from earlier work
mice = experiment: Tail flick test, temperature stimuli; format: in vivo; settings: no pain inducer; GsMTx4 40 μg/150 g intraperitoneal; compared to morphine 10 mg/150 g; 30 to 4 hours later
Source text: The present inventors looked into GsMTx4 for its possible analgesic activity on pain from temperature stimuli. Mice were irradiated with infrared in their tails and monitored for their endurance against heat (tail flick test). The analgesic effect of GsMTx4 was examined by comparing data from a group of mice suffering from induced pain with those from a non-induced group (Pitcher G. M. et al., Journal of Neuroscience Methods, 87(2):185˜193, 1999).
Three groups of 8 mice each respectively received an intraperitoneal injection of either physiological saline solution (100 μL) as the negative control, or morphine (10 mg/150 g body weight) as the positive control, or GsMTx4 (40 μg/150 g). They were then subject to the tail flick test 30 to 4 hours later.

[6] = system: mice with neuropathic pains; experiment: von Frey test under a neuropathic pain model; format: in vivo; settings: tibial and sural nerves cut; 50 μg/200 g body weight; 4 hours after injection; versus saline control
Source text: Neuropathic pain was induced to mice according to the method reported by Lee and others (Lee, B. et al., Neuroreport 11:657˜661, 2000). Mice were put under anesthesia and their skin was excised in the thighs to expose the tibial, sural and common peroneal nerves. Out of these, the tibial and sural nerves were bound together and cut off. Mice were then allowed to recuperate for 6 days after the operation and the monitoring for the presence of neuropathic pain began 1 week after the operation. The analgesic effect of GsMTx4 on those mice suffering from neuropathic pain was tested by the von Frey test as in Example 9.
Mice with neuropathic pains were divided into two groups of 9. To the first group, GsMTx (50 μg/200 g body weight) was injected and to the second group, physiological saline solution for control. 4 hours after the injection of GsMTx4, mechanical stimuli were applied to these mice with von Frey filaments. The width of the von Frey filament that evoked a nociceptic (flexor) reflex was recorded before and after the surgery, and the data was expressed as the percentage of the latter width in relation to the former.

[7] = system: mice that did not receive carrageenan; experiment: Randall-Selitto test, mechanical high-pressure stimuli, no pain inducer; format: in vivo; settings: mice without carrageenan; compared to intraplantar saline and intraperitoneal morphine groups
Procedure: as §1, §2

[8] = carrageenan-treated mice, GsMTx4 40 μg/150 g intraperitoneal

| Molecule | hypersensitivity (pain threshold for hair force) (carrageenan-treated mice [1]; mouse, in vivo, ip) | weight difference between hind limbs (carrageenan-treated mice [2]; mouse, in vivo, ip) | pain sensitivity threshold (carrageenan-treated mice [3]; mouse, in vivo, ip) | effect on atrial fibrillation [4] | analgesic effect against mechanical low pressure [5] | hypersensitivity (pain threshold for hair force) (carrageenan-treated mice [1]; 2% carrageenan 50 μL intraplantar, intraperitoneal GsMTx4 40 μg/150 g or morphine 10 mg/150 g, a half to 4 hours later) | effect on cell swelling associated with congestive heart failure (cell swelling) | analgesic activity against temperature stimuli (mice) | weight difference between hind limbs (carrageenan-treated mice [2]; 2% carrageenan 50 μL intraplantar, GsMTx4 40 μg/150 g or morphine 10 mg/150 g intraperitoneally, 1 to 6 hours later) | reflex threshold against mechanical stimuli (von Frey filaments) [6] | analgesic effect against mechanical high pressure [7] | pain sensitivity threshold (carrageenan-treated mice [3]; 2% carrageenan 50 μL intraplantar, intraperitoneal GsMTx4 40 μg/150 g body weight or morphine 1.5 mg/150 g) | time after injection at which the analgesic effect occurred (carrageenan-treated mice [3]; [8]) | time the analgesic effect lasted (carrageenan-treated mice [3]; [8]) |
| --- | --- | --- | --- | --- | --- | --- | --- | --- | --- | --- | --- | --- | --- | --- |
| CN1CC[C@]23c4c5ccc(O)c4O[C@H]2[C@@H](O)C=C[C@H]3[C@H]1C5 [morphine, reference compound] | reduce hypersensitivity | reverted back to a low value | increased back substantially |  |  |  |  |  |  |  |  |  |  |  |
| GsMTx4: Spider toxin peptide of 34 amino acids (SEQ. ID NO 1), 3 disulfide bonds, mechanosensitive ion channel inhibitor; produced recombinantly in Pichia pastoris (GCLEFWWKCNPNDDKCCRPKLKCSKLFKLCNFSF; disulfide (positions not given here); not fully specified (bridges); ends not checked; listed as Grammostola spatulata) |  |  |  | relieve symptoms of atrial fibrillation | observed, albeit weakly | reduce hypersensitivity | prevent cell swelling | either negligible or no analgesic activity | reverted back to a low value | elevation of the reflex threshold | evident | increased back substantially | 30 min | approximately 4 hours |
